This passage reports IC50 results from patent publication US20250179103A1, “6-OXODECAHYDROPYRROLO[1,2-A][1,5]DIAZOCINE AND 6-OXODECAHYDRO-4H-PYRROLO[2,1-D][1,5]THIAZOCINE DERIVATIVES AS STAT3 AND STAT6 MODULATORS FOR THE TREATMENT OF CANCER AND INFLAMMATORY CONDITIONS” (Recludix Pharma, Inc., priority 2022, published 2025).

Assay [1] has as its target T1, Recombinant STAT3 protein (STAT3(G127-I722)) (Homo sapiens, UniProt P40763).
T1 construct: Recombinant STAT3 protein (STAT3(G127-I722))
Nature of the assay: STAT3 Fluorescence Polarization (FP) Assay. Type of assay: binding. The following applies: STAT3(G127-I722) 25 nM, probe 5-FAM-GpYLPQTV-NH2 2 nM, 45-minute incubation. The method, then: STAT3 Fluorescence Polarization (FP) Assay
An FP assay was developed to determine IC50 values for test substances. Recombinant STAT3 protein (STAT3(G127-I722)) at 25 nM was combined with a fluorescently labeled, phosphotyrosine peptide probe (5-FAM-GpYLPQTV-NH2) at 2 nM in FP buffer (10 mM HEPES pH 7.4, 50 mM NaCl, 1 mM EDTA, 0.05% Tween 20.2 mM DTT). 50 μL of STAT3-probe mixture was added to serial diluted compounds in black, 96-well plates (Greiner BioOne 655076) to a final concentration of 1% DMSO. Reaction components were mixed, and FP was measured after 45-minute incubation at room temperature using a Tecan Spark multimode plate reader. FP signal (mP) was plotted against the log concentration of the test substances and IC50 values were calculated by nonlinear regression analysis using GraphPad Prism software. For STAT3 FP assay, A=≤100 nM; B=>100-1000 nM; C=>1-10 μM; and D=>10 μM.

Assay [2] has as its target T2, Recombinant STAT6 protein (STAT6(W123-T658)) (Homo sapiens, UniProt P42226).
T2 construct: Recombinant STAT6 protein (STAT6(W123-T658))
T2 sequence (P42226 123-658): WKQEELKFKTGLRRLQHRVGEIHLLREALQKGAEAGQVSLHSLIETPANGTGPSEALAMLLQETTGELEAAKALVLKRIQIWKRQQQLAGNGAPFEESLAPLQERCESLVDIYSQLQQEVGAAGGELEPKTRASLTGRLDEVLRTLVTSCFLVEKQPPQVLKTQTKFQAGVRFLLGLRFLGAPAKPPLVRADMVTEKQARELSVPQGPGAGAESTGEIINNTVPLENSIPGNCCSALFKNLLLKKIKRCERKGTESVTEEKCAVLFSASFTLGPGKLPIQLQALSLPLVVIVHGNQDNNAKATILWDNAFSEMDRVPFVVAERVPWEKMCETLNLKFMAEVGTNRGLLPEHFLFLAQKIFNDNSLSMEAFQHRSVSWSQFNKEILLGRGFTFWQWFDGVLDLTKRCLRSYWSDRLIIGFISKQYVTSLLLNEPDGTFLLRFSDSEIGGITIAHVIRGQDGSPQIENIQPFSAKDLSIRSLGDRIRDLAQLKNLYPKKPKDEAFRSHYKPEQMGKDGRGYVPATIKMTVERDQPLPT
Nature of the assay: STAT6 Fluorescence Polarization (FP) Assay. Particulars: STAT6(W123-T658) 250 nM, probe 5-FAM-ApYKPFQDLI-NH2 2 nM, 45-minute incubation. The assay is classed as binding. Here is the method: STAT6 Fluorescence Polarization (FP) Assay
An FP assay was developed to determine IC50 values for test substances. Recombinant STAT6 protein (STAT6(W123-T658)) at 250 nM was combined with a fluorescently labeled, phosphotyrosine peptide probe (5-FAM-ApYKPFQDLI-NH2) at 2 nM in FP buffer (10 mM HEPES pH 7.4, 50 mM NaCl, 1 mM EDTA, 0.05% Tween 20.2 mM DTT). 50 μL of STAT6-probe mixture was added to serial diluted compounds in black, 96-well plates (Greiner BioOne 655076) to a final concentration of 1% DMSO. Reaction components were mixed, and FP was measured after 45-minute incubation at room temperature using a Tecan Spark multimode plate reader. FP signal (mP) was plotted against the log concentration of the test substances and IC50 values were calculated by nonlinear regression analysis using GraphPad Prism software. For STAT6 FP assay, A=≤300 nM; B=>300-3000 nM; C=>3-30 μM; and D=>30 μM.

T1 sequence (P40763 127-722): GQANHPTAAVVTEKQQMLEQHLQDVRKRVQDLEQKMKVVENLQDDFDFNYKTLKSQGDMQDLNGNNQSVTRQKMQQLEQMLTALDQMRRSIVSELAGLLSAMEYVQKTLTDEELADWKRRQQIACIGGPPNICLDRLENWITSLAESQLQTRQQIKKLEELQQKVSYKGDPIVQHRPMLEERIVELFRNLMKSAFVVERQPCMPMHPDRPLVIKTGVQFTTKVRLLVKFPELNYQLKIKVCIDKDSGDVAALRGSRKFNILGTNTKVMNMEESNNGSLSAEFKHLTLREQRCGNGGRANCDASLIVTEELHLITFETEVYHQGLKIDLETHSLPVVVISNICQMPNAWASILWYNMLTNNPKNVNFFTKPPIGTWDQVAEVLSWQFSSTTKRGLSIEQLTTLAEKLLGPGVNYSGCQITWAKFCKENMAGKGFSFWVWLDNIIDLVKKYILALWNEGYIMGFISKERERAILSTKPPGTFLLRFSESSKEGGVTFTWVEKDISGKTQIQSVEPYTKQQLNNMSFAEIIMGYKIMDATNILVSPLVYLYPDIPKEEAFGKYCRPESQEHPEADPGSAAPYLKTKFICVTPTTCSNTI

As to `CC(=O)N1CC[C@H]2CC[C@@H](C(=O)N3CC(c4cc(F)cc(F)c4)[C@@H](C#N)C3)N2C(=O)[C@@H](NC(=O)c2cc3cc(C(F)(F)P(=O)(O)O)ccc3s2)C1` (relative stereo) [Compound 142, ((2-(((5S,8S,10aR)-3-acetyl-8-((rel-trans)-3-cyano-4-(3,5-difluorophenyl)pyrrolidine-1-carbonyl)-6-oxodecahydropyrrolo[1,2-a][1,5]diazocin-5-yl)carbamoyl)benzo[b]thiophen-5-yl)difluoromethyl)phosphonic acid], the IC50 (in general, the concentration that inhibits the measured activity by half) in assay [1] is 1 to 10 µM; in assay [2], not above 0.3 µM.

`CC(=O)N1CC[C@H]2CC[C@@H](C(=O)N3CC(c4ccccc4)[C@@H](c4ccccc4)C3)N2C(=O)[C@@H](NC(=O)c2cc3cc(C(F)(F)P(=O)(O)O)ccc3s2)C1` (relative stereo) [Compound 143, ((2-(((5S,8S,10aR)-3-acetyl-8-((rel-trans)-3,4-diphenylpyrrolidine-1-carbonyl)-6-oxodecahydropyrrolo[1,2-a][1,5]diazocin-5-yl)carbamoyl)benzo[b]thiophen-5-yl)difluoromethyl)phosphonic acid]: the values for the half-maximal inhibitory concentration (IC50) in assay [1] and in assay [2] were 1 to 10 µM and not above 0.3 µM, respectively.

As for `COc1ccccc1C1CN(C(=O)[C@@H]2CC[C@@H]3CCN(C(C)=O)C[C@H](NC(=O)c4cc5cc(C(F)(F)P(=O)(O)O)ccc5s4)C(=O)N32)C[C@@H]1C#N` (relative stereo) [Compound 144, ((2-(((5S,8S,10aR)-3-acetyl-8-((rel-trans)-3-cyano-4-(2-methoxyphenyl)pyrrolidine-1-carbonyl)-6-oxodecahydropyrrolo[1,2-a][1,5]diazocin-5-yl)carbamoyl)benzo[b]thiophen-5-yl)difluoromethyl)phosphonic acid], the IC50 in assay [1] is 1 to 10 µM; in assay [2], not above 0.3 µM.

With `CC(=O)N1CC[C@H]2CC[C@@H](C(=O)N3CC(c4cc[nH]c(=O)c4)[C@@H](C#N)C3)N2C(=O)[C@@H](NC(=O)c2cc3cc(C(F)(F)P(=O)(O)O)ccc3s2)C1` (relative stereo) [Compound 145, ((2-(((5S,8S,10aR)-3-acetyl-8-((rel-trans)-3-cyano-4-(2-oxo-1,2-dihydropyridin-4-yl)pyrrolidine-1-carbonyl)-6-oxodecahydropyrrolo[1,2-a][1,5]diazocin-5-yl)carbamoyl)benzo[b]thiophen-5-yl)difluoromethyl)phosphonic acid], the 50% inhibitory concentration (IC50) in assay [1] is 0.1 to 1 µM; in assay [2], not above 0.3 µM.

In the case of `CC(=O)N1CC[C@H]2CC[C@@H](C(=O)N3CC(c4ccc(=O)[nH]c4)[C@@H](C#N)C3)N2C(=O)[C@@H](NC(=O)c2cc3cc(C(F)(F)P(=O)(O)O)ccc3s2)C1` (relative stereo) [Compound 146, ((2-(((5S,8S,10aR)-3-acetyl-8-((rel-trans)-3-cyano-4-(6-oxo-1,6-dihydropyridin-3-yl)pyrrolidine-1-carbonyl)-6-oxodecahydropyrrolo[1,2-a][1,5]diazocin-5-yl)carbamoyl)benzo[b]thiophen-5-yl)difluoromethyl)phosphonic acid], the IC50 in assay [1] fell in the range of 0.1 to 1 µM; in assay [2], 0.3 to 3 µM.

For the compound `COc1ccc(C2CN(C(=O)[C@@H]3CC[C@@H]4CCN(C(C)=O)C[C@H](NC(=O)c5cc6cc(C(F)(F)P(=O)(O)O)ccc6s5)C(=O)N43)C[C@@H]2C#N)cn1` (relative stereo) [Compound 147, ((2-(((5S,8S,10aR)-3-acetyl-8-((rel-trans)-3-cyano-4-(6-methoxypyridin-3-yl)pyrrolidine-1-carbonyl)-6-oxodecahydropyrrolo[1,2-a][1,5]diazocin-5-yl)carbamoyl)benzo[b]thiophen-5-yl)difluoromethyl)phosphonic acid], the IC50 in assay [1] was in the range of 0.1 to 1 µM; in assay [2], 0.3 to 3 µM.
